This is an account of results in patent publication US20070122341A1, “Benzylideneaniline derivatives and their radioisotope labeled compounds for binding and imaging of beta-amyloid plaques” (SEOUL NATIONAL UNIVERSITY INDUSTRY FOUNDATION, priority 2005, published 2007).

The nature of data set [1]: Biodistribution in normal mice. The format is in vivo. The settings on record: 18F-labeled compounds, tail vein injection, ICR male mice; ratio of brain uptake (% ID/g) at 2 min over 30 min. As to the method: Biodistribution study of the ^18F-labeled compounds of Example 7 was performed with ICR male mice (weight range 27-28 g). 0.1 mL of a saline solution containing each ^18F-labeled benzylideneaniline compound A, B, C, D, E or F (37-74 kBq) was injected through the tail vein. The mice were sacrificed by decapitation at 2 min and 30 min time points post injection. The organs of interest, including blood, muscle, fat, heart, lung, liver, spleen, stomach, intestine, brain and bone, were separated and weighed, and the remaining radioactivity was counted with a NaI well counter.

In data set [2] the target is T1, Aβ1-40 aggregates (Homo sapiens, UniProt P05067).
T1 construct: purchased Sigma
T1 sequence (P05067 672-711): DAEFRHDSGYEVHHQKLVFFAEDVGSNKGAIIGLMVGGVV
Put plainly: In vitro binding assay with Aβ1-40 aggregates, inhibition of [125I]3'-I-BTA-1 binding. The settings on record: for affinity to Aβ1-40 (in words): conclusion from Ki values of Table 2; for Ki: unlabeled compounds, Aβ1-40 aggregates 20 nM, [125I]3'-I-BTA-1 0.04 nM, 3 hr room temperature, Ki calculated from IC50. As for the experimental part:
Aggregated peptides were prepared using the solid form of peptides Aβ1-40 (purchased from Sigma) by a literature method (Klunk, W. E.; Wang, Y.; Huang, G-F.; Debnath, M. L.; Holt D. P.; Mathis, C. A. Uncharged thioflavin-T derivatives bind to amyloid-beta protein with high affinity and readily enter the brain. Life Sci. 2001, 69(13), […]). The aggregated Aβ1-40 peptide was aliquoted and stored at −70° C. Binding studies were performed according to the procedure described in the literature with some modifications (Zhuang, Z.-P.; Kung, M.-P.; Wilson, A.; Lee, C.-W.; Plossl, K.; Hou, C.; Holtzman, D. M.; Kung, H. F.; Structure-activity relationship of imidazo[1,2-a]pyridines as ligands for detecting β-amyloid plaques in the brain. J. Med. Chem. 2003; 46(2), 237-243). The Ki values of benzylideneaniline derivatives were evaluated with Aβ1-40 aggregates.
The reaction mixtures containing 100 μL of Aβ^1-40 aggregates (20 nM in the final mixture), 100 μL of benzylideneaniline derivatives (10^−5-10^−10 M in 50% ethanol), 100 μL of [^125I]3′-I-BTA-1 in 50% ethanol (0.04 nM in the final mixture), and 700 μL of phosphate buffered saline (pH=7.2) were incubated for 3 hr at room temperature, filtered through Whatman GF/B glass filters and washed twice with 3 mL of 10% EtOH. The filters were counted in a gamma-counter. Nonspecific binding was determined by reacting in the presence of 10 μM stilbene.

Molecules are shown by their SMILES. “And” between values parts separate entries of the source, which are not always exact repeats. Identical values can stand only once. Some results are limits rather than exact numbers.

As usually defined, the Ki is a dissociation constant, usually derived from enzyme kinetics or from competition with a known ligand. Broadly, the melting point is the temperature of the solid-liquid transition. On to `CNc1ccc(/N=C/c2ccc(F)cc2)cc1` [B, N-(4-fluorobenzylidene)-N′-methylbenzene-1,4-diamine], for which the melting point was in the range of 106 to 107 °C. Further, the Brain uptake ratio in data set [1] turned out to be 5.4 ± 0.5. In addition, in data set [2], the “affinity to Aβ1-40 (in words)” value is “have affinity to Aβ1-40” and the Ki is 1040 nM.
For `CN(C)c1ccc(/N=C/c2ccc(F)cc2)cc1` [C, N-(4-fluorobenzylidene)-N′,N′-dimethylbenzene-1,4-diamine], in that order: 191 to 192 °C, 2.9 ± 0.5, “have affinity to Aβ1-40” and 149 nM.
The corresponding values for `Nc1ccc(/N=C/c2ccc(F)cc2)cc1` [Compound A, N-(4-fluorobenzylidene)benzene-1,4-diamine] are 169 to 170 °C, 8.7 ± 1.7, “have affinity to Aβ1-40” and 304 nM.
Consider `Oc1ccc(/N=C/c2ccc(F)cc2)cc1` [D], for which the melting point was 148 to 149 °C. Moreover, the Brain uptake ratio in data set [1] is 24.3 and 24.3 ± 4.6. Besides, in data set [2], the “affinity to Aβ1-40 (in words)” value was “low binging affinity” and the Ki is above 10000 nM.
In the case of `COc1ccc(/N=C/c2ccc(F)cc2)cc1` [E, (4-fluorobenzylidene)-(4-methoxyphenyl)amine], the melting point lay within 92 to 93 °C. Besides, the Brain uptake ratio in data set [1] worked out at 4.2 ± 0.9. The Ki in data set [2] is above 10000 nM.
Consider `O=C(O)c1cc(/N=C/c2ccc(F)cc2)ccc1O` [F, 5-[(4-fluorobenzylidene)amino]-2-hydroxybenzoic acid], for which the Brain uptake ratio in data set [1] stood at 11.0 ± 2.0. Besides, the inhibition constant (Ki) in data set [2] is above 10000 nM.
